The test system of experiment [1] is Gram-positive Staphylococcus aureus (S. aureus) 29213. The experiment in a line: Antibacterial activity, microbroth dilution MIC, S. aureus 29213. In kind it is cell-based. The following applies: Staphylococcus aureus, read-out: MIC, 29213.
For experiment [2], the system named is super sensitive Gram-negative Escherichia coli (E. coli) BAS849. The experiment in a line: Antibacterial activity, microbroth dilution MIC, E. coli BAS849. In kind it is cell-based. Conditions: Escherichia coli, read-out: MIC, BAS849.
The subject of experiment [3] is quinolone resistant E. coli LZ3111. Nature of the experiment: Antibacterial activity, MIC, quinolone resistant E. coli LZ3111. Conditions: Escherichia coli, read-out: MIC, LZ3111. In kind it is cell-based, Escherichia coli. The text has this:
The antibacterial activity from a microbroth dilution method may be presented as the minimum inhibitory concentration (MIC in […]). The MIC value is the lowest concentration of a drug which prevents macroscopically visible bacterial growth under test conditions.
Mutations in these regions are known to confer a high level resistance to the quinolone class of antibiotics.

Experiment [4] has as its system control Gram-negative E. coli 25922 strain. The experiment in a line: Antibacterial activity, microbroth dilution MIC, E. coli 25922. Conditions: Escherichia coli, read-out: MIC, 25922. It counts as cell-based, Escherichia coli. For orientation: Dilution methods test growth across graded concentrations, often in twofold steps.
Where [5] appears, read: S. aureus 29213, microbroth dilution.
Where [6] appears, read: E. coli BAS849, microbroth dilution.
[7] abbreviates: E. coli 25922, microbroth dilution.

We go through 17 compounds from patent publication US9650395B2, “Antibacterial compounds and methods for use” (PTC Therapeutics, Inc., priority 2011, dated 2017).

In general, MIC refers to the least concentration at which growth counts as inhibited.

In brackets after ≈: the same amount, converted by molar mass. Structures can show the parent of a compound that is named as a salt. Where two headings read alike, the source gives them in different places.

For `CCc1cc(C(=O)O)c(=O)[nH]c1-c1ccc(N2CCC(N(C)C)CC2)cc1` [Cpd 223, 6-{4-[4-(dimethylamino)piperidin-1-yl]phenyl}-5-ethyl-2-oxo-1,2-dihydropyridine-3-carboxylic acid], the MIC in experiment [1] (setting [5]), in experiment [2] (setting [6]), in experiment [3] and in experiment [4] (setting [7]) was 12.5 to 150 µg/mL (≈ 33.8 to 406 µM) in each case.
`CCc1cc(C(=O)O)c(=O)[nH]c1-c1ccc(N2CCC(N3CCCC3)C2)cc1` (centres unmarked) [Cpd 175, 6-[4-(1,3′-bipyrrolidin-1′-yl)phenyl]-5-ethyl-2-oxo-1,2-dihydropyridine-3-carboxylic acid]: the MIC in experiment [1] (setting [5]) is 12.5 to 150 µg/mL (≈ 32.8 to 393 µM); in experiment [2] (setting [6]), < 1 µg/mL; in experiment [3], 12.5 to 150 µg/mL (≈ 32.8 to 393 µM); in experiment [4] (setting [7]), 1 to 3.5 µg/mL (≈ 2.62 to 9.17 µM).
For the compound `CCc1c(-c2ccc(N3CCC(OCc4ccccc4)CC3)cc2)[nH]c(=O)c(C(=O)O)c1O` [Cpd 281, 6-{4-[4-(benzyloxy)piperidin-1-yl]phenyl}-5-ethyl-4-hydroxy-2-oxo-1,2-dihydropyridine-3-carboxylic acid], the MIC in experiment [1] (setting [5]) was in the range of 12.5 to 150 µg/mL (≈ 27.9 to 334 µM); in experiment [2] (setting [6]), 3.5 to 12.5 µg/mL (≈ 7.8 to 27.9 µM); in experiment [3], 12.5 to 150 µg/mL (≈ 27.9 to 334 µM); in experiment [4] (setting [7]), 12.5 to 150 µg/mL (≈ 27.9 to 334 µM).
As to `CCc1c(-c2ccc(N3CCC(n4ccnn4)C3)cc2)[nH]c(=O)c(C(=O)O)c1O` (centres unmarked) [Cpd 287, 5-ethyl-4-hydroxy-2-oxo-6-{4-[3-(1H-1,2,3-triazol-1-yl)pyrrolidin-1-yl]phenyl}-1,2-dihydropyridine-3-carboxylic acid], the MIC in experiment [1] (setting [5]) was 3.5 to 12.5 µg/mL (≈ 8.85 to 31.6 µM); in experiment [2] (setting [6]), < 1 µg/mL; in experiment [3], 12.5 to 150 µg/mL (≈ 31.6 to 379 µM); in experiment [4] (setting [7]) it was 1 to 3.5 µg/mL (≈ 2.53 to 8.85 µM).
Consider `CCc1cc(C(=O)O)c(=O)[nH]c1-c1ccc(N2CCC(CNCc3ccc(Cl)cc3)C2)cc1` (centres unmarked) [Cpd 237, 6-[4-(3-{[(4-chlorobenzyl)amino]methyl}pyrrolidin-1-yl)phenyl]-5-ethyl-2-oxo-1,2-dihydropyridine-3-carboxylic acid], for which the MIC in experiment [1] (setting [5]) was 3.5 to 12.5 µg/mL (≈ 7.51 to 26.8 µM); in experiment [2] (setting [6]), < 1 µg/mL; in experiment [3] it was 12.5 to 150 µg/mL (≈ 26.8 to 322 µM); in experiment [4] (setting [7]), < 1 µg/mL.
With `CCc1cc(C(=O)O)c(=O)[nH]c1-c1ccc(NCCN(C)C)cc1` [Cpd 159, 6-(4-{[2-(dimethylamino)ethyl]amino}phenyl)-5-ethyl-2-oxo-1,2-dihydropyridine-3-carboxylic acid], the MIC in experiment [1] (setting [5]) lay within 12.5 to 150 µg/mL (≈ 37.9 to 455 µM); in experiment [2] (setting [6]), 1 to 3.5 µg/mL (≈ 3.04 to 10.6 µM); in experiment [3], 12.5 to 150 µg/mL (≈ 37.9 to 455 µM); in experiment [4] (setting [7]), 12.5 to 150 µg/mL (≈ 37.9 to 455 µM).
In the case of `CCc1cc(C(=O)O)c(=O)[nH]c1-c1ccc(N2C[C@H]3CC[C@@H](N(Cc4ccccc4)Cc4ccccc4)[C@H]3C2)cc1.O=C(O)C(F)(F)F` [Cpd 201, 6-{4-[(3aR,4R,6aS)-4-(dibenzylamino)hexahydrocyclopenta[c]pyrrol-2(1H)-yl]phenyl}-5-ethyl-2-oxo-1,2-dihydropyridine-3-carboxylic acid trifluoroacetate], the MIC in experiment [1] (setting [5]) fell in the range of 12.5 to 150 µg/mL; in experiment [2], 3.5 to 12.5 µg/mL; in experiment [3] it was 12.5 to 150 µg/mL; in experiment [4] (setting [7]) it was 12.5 to 150 µg/mL.
For `CCc1cc(C(=O)O)c(=O)[nH]c1-c1ccc(N2CC3NC3C2)cc1` (centres unmarked) [Cpd 209, 6-[4-(3,6-diazabicyclo[3.1.0]hex-3-yl)phenyl]-5-ethyl-2-oxo-1,2-dihydropyridine-3-carboxylic acid], the MIC in experiment [1] fell in the range of 12.5 to 150 µg/mL (≈ 38.4 to 461 µM); in experiment [2] (setting [6]), 3.5 to 12.5 µg/mL (≈ 10.8 to 38.4 µM); in experiment [3], 12.5 to 150 µg/mL (≈ 38.4 to 461 µM); in experiment [4], 12.5 to 150 µg/mL (≈ 38.4 to 461 µM).
As for `CCc1c(-c2ccc(N3CCC4(CCNCC4)C3)cc2)[nH]c(=O)c(C(=O)O)c1O.Cl` [Cpd 278, 6-[4-(2,8-diazaspiro[4.5]dec-2-yl)phenyl]-5-ethyl-4-hydroxy-2-oxo-1,2-dihydropyridine-3-carboxylic acid hydrochloride], the MIC in experiment [1] (setting [5]) is 3.5 to 12.5 µg/mL; in experiment [2] (setting [6]) it was < 1 µg/mL; in experiment [3] it was 12.5 to 150 µg/mL; in experiment [4] (setting [7]) it was 3.5 to 12.5 µg/mL.
As for `CCc1cc(C(=O)O)c(=O)[nH]c1-c1ccc(CN2CCCC2)n1C` [Cpd 350, 5-ethyl-6-(1-methyl-5-(pyrrolidin-1-ylmethyl)-1H-pyrrol-2-yl)-2-oxo-1,2-dihydropyridine-3-carboxylic acid], the MIC in experiment [1] (setting [5]), in experiment [2] (setting [6]), in experiment [3] and in experiment [4] (setting [7]) was 12.5 to 150 µg/mL (≈ 37.9 to 455 µM) throughout.
For `CCc1cc(C(=O)O)c(=O)[nH]c1-c1ccc(N2C[C@H]3CCC[C@@H](N(C)Cc4ccccc4)[C@H]3C2)cc1.O=C(O)C(F)(F)F` [Cpd 194, 6-(4-{(3aR,4R,7aS)-4-[benzyl(methyl)amino]octahydro-2H-isoindol-2-yl}phenyl)-5-ethyl-2-oxo-1,2-dihydropyridine-3-carboxylic acid trifluoroacetate], the MIC lay in the range of 3.5 to 12.5 µg/mL in experiment [1] (setting [5]), 1 to 3.5 µg/mL in experiment [2], 12.5 to 150 µg/mL in experiment [3] and 12.5 to 150 µg/mL in experiment [4] (setting [7]).
In the case of `CCc1cc(C(=O)O)c(=O)[nH]c1-c1ccc(N2CCC(N(C)C)C2)cc1F` (centres unmarked) [Cpd 221, 6-{4-[3-(dimethylamino)pyrrolidin-1-yl]-2-fluorophenyl}-5-ethyl-2-oxo-1,2-dihydropyridine-3-carboxylic acid], the MIC in experiment [1] (setting [5]) was in the range of 12.5 to 150 µg/mL (≈ 33.5 to 402 µM); in experiment [2] (setting [6]) it was 1 to 3.5 µg/mL (≈ 2.68 to 9.37 µM); in experiment [3], 12.5 to 150 µg/mL (≈ 33.5 to 402 µM); in experiment [4] (setting [7]), 3.5 to 12.5 µg/mL (≈ 9.37 to 33.5 µM).
For `CCc1cc(C(=O)O)c(=O)[nH]c1-c1ccc(N2CCC(C)(N)C2)cc1.O=C(O)C(F)(F)F` (centres unmarked) [Cpd 166, 6-[4-(3-amino-3-methylpyrrolidin-1-yl)phenyl]-5-ethyl-2-oxo-1,2-dihydropyridine-3-carboxylic acid trifluoroacetate], the MIC in experiment [1] (setting [5]) was 12.5 to 150 µg/mL; in experiment [2], < 1 µg/mL; in experiment [3] it was 12.5 to 150 µg/mL; in experiment [4] (setting [7]), 3.5 to 12.5 µg/mL.
Turning to `CCc1cc(C(=O)O)c(=O)[nH]c1-c1ccc(N2C[C@@H](N)[C@@H](OC)C2)cc1.Cl` [Cpd 135, 6-{4-[(3R,4S)-3-amino-4-methoxypyrrolidin-1-yl]phenyl}-5-ethyl-2-oxo-1,2-dihydropyridine-3-carboxylic acid hydrochloride], the MIC in experiment [1] (setting [5]) is 12.5 to 150 µg/mL; in experiment [2] (setting [6]), < 1 µg/mL; in experiment [3], 12.5 to 150 µg/mL; in experiment [4] (setting [7]) it was 12.5 to 150 µg/mL.
`CCc1cc(C(=O)O)c(=O)[nH]c1-c1ccc(N2CCC(C)(O)C2)cc1` (centres unmarked) [Cpd 233, 5-ethyl-6-[4-(3-hydroxy-3-methylpyrrolidin-1-yl)phenyl]-2-oxo-1,2-dihydropyridine-3-carboxylic acid]: the MIC in experiment [1] (setting [5]) was 12.5 to 150 µg/mL (≈ 36.5 to 438 µM); in experiment [2] (setting [6]), < 1 µg/mL; in experiment [3], 12.5 to 150 µg/mL (≈ 36.5 to 438 µM); in experiment [4] (setting [7]), 3.5 to 12.5 µg/mL (≈ 10.2 to 36.5 µM).
With `CCc1cc(C(=O)O)c(=O)[nH]c1-c1ccc(N2C[C@H]3C[C@@H](NC)C[C@H]3C2)cc1` [Cpd 215, 5-ethyl-6-{4-[(3aR,5r,6aS)-5-(methylamino)hexahydrocyclopenta[c]pyrrol-2(1H)-yl]phenyl}-2-oxo-1,2-dihydropyridine-3-carboxylic acid trifluoroacetate], the MIC in experiment [1] (setting [5]) was 12.5 to 150 µg/mL; in experiment [2], 1 to 3.5 µg/mL; in experiment [3], 12.5 to 150 µg/mL; in experiment [4] (setting [7]) it was 3.5 to 12.5 µg/mL.
Take `CCc1cc(C(=O)O)c(=O)[nH]c1-c1ccc(N2CCC(CNCc3cccc(Cl)c3)C2)cc1` (centres unmarked) [Cpd 236, 6-[4-(3-{[(3-chlorobenzyl)amino]methyl}pyrrolidin-1-yl)phenyl]-5-ethyl-2-oxo-1,2-dihydropyridine-3-carboxylic acid]: the MIC in experiment [1] (setting [5]) was 3.5 to 12.5 µg/mL (≈ 7.51 to 26.8 µM); in experiment [2] (setting [6]) it was < 1 µg/mL; in experiment [3], 12.5 to 150 µg/mL (≈ 26.8 to 322 µM); in experiment [4] (setting [7]) it was 1 to 3.5 µg/mL (≈ 2.15 to 7.51 µM).
